Where two headings read alike, the source gives them in different places.
Experiments:
[1] = target: T1, LTA4H (Homo sapiens, UniProt P09960); test: 5-LOX product formation from intact PMNs: LTB4 (cellular activity of LTA4H); format: cell-based; conditions: for inhibition of LTA4H (LTB4 production) in PMNs with exogenous AA: 10 µM inhibitor, 0–20 µM AA
T1 sequence (P09960 1-611): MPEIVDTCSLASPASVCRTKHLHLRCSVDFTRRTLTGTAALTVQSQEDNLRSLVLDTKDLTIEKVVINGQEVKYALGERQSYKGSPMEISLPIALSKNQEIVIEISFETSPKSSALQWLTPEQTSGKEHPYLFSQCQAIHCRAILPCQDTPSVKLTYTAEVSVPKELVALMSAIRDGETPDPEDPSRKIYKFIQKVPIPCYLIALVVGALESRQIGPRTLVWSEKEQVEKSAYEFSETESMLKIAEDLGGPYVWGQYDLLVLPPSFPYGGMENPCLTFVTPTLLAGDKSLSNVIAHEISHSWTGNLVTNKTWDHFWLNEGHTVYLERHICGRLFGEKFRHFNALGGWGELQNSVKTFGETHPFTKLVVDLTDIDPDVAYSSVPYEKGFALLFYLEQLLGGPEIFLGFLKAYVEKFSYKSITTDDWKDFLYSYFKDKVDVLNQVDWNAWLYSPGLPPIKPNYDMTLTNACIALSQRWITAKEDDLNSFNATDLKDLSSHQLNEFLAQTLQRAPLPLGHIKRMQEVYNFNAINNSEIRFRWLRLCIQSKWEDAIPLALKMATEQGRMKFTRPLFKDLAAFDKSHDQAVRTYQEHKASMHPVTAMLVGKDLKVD
Protocol: Human primary leukocytes were isolated from peripheral blood of healthy adult volunteers provided by the Institute of Transfusion Medicine at the University Hospital Greifswald as described before. All methods were performed in accordance with the Declaration of Helsinki. In brief, erythrocytes were removed by dextran sedimentation and leukocytes were separated by the density gradient centrifugation on a lymphocyte separation medium (Histopaque®-1077, Merck, Darmstadt, Germany). The remaining erythrocytes were removed by hypotonic lysis using water, and resulting polymorphonuclear neutrophils (PMNs) were resuspended in PBS containing 0.1% (w/v) glucose (PG buffer) or PG buffer with 1 mM CaCl2 (PGC buffer) as indicated. Resulting peripheral blood mononuclear cells (PBMC), including monocytes, were seeded in the RPMI 1640 medium supplemented with 10% (v/v) FCS, 100 U/mL penicillin, 100 µg/mL streptomycin and 2 mM L-glutamine in cell culture flasks (Greiner Bio-one, Frickenhausen, Germany) for 1.5 h at 37 °C and 5% CO2. Adherent monocytes were washed twice with PBS and were finally resuspended in the RPMI 1640 medium as described before.
PMNs (5 × 10^6 cells/mL) were diluted in PGC buffer and pre-incubated with the vehicle (0.1%; v/v) or compounds for 10 min at 37 °C prior to the stimulation with 2.5 µM A23187. After 10 min at 37 °C, treatments were stopped on ice with an equal volume of ice-cold methanol. Next, 530 µL acidified PBS containing 200 ng PGB1 as an internal standard were added to the sample followed by the solid phase extraction with on a RP18 column. […] Formed 5-LOX metabolites were analyzed as described previously.

[2] = target: T1, LTA4H; test: Peptidase assay of LTA4H with pNa and AMC conjugates; format: biochemical; design: made in house; host or cells: Escherichia coli JM101; conditions: for AC50: activation; for Specific activity of LTA4H with L-Ala-pNa in the presence of inhibitor: substrate L-Ala-pNa; for Specific activity of LTA4H with L-Ala-pNa in the presence of inhibitor / Specific activity of LTA4H with L-Arg-AMC in the presence of inhibitor / Specific activity of LTA4H with L-Arg-pNa in the presence of inhibitor / Specific activity of LTA4H with L-Leu-pNa in the presence of inhibitor / Specific activity of LTA4H with L-Pro-AMC in the presence of inhibitor / Specific activity of LTA4H with L-Pro-pNa in the presence of inhibitor / Specific activity of LTA4H with L-Val-pNa in the presence of inhibitor: mean ± SEM, n = 3; for Specific activity of LTA4H with L-Arg-AMC in the presence of inhibitor: substrate L-Arg-AMC; for Specific activity of LTA4H with L-Arg-pNa in the presence of inhibitor: substrate L-Arg-pNa; for Specific activity of LTA4H with L-Leu-pNa in the presence of inhibitor: substrate L-Leu-pNa; for Specific activity of LTA4H with L-Pro-AMC in the presence of inhibitor: substrate L-Pro-AMC; for Specific activity of LTA4H with L-Pro-pNa in the presence of inhibitor: substrate L-Pro-pNa; for Specific activity of LTA4H with L-Val-pNa in the presence of inhibitor: substrate L-Val-pNa; for fold change of specific activity with L-Arg-AMC / fold change of specific activity with L-Arg-pNa / fold change of specific activity with L-Pro-AMC: vs LTA4H without inhibitor (decrease); for fold change of specific activity with L-Ala-pNa / fold change of specific activity with L-Leu-pNa / fold change of specific activity with L-Val-pNa: vs LTA4H without inhibitor (increase)
Protocol: In addition, the aminopeptidase assay was performed with p-nitroanilide (pNa) and 7-amido-4-methylcoumarin (AMC) conjugates containing different N-terminal amino acids. Incubations were carried out with 1 μg LTA4H and 1 mM pNa substrates or 5 µM AMC substrates in 400 μL 10 mM Tris-HCl pH 7.8 containing 100 mM KCl at room temperature for 30 min. The absorbance of released pNa was measured after every 5 min at 405 nm using a TECAN Infinite M200 plate reader. The measurements with AMC derivatives were carried out using a black polystyrene 96-well plate and the fluorescence of released AMC at 360 nm/460 nm (ex/em) was recorded. Specific activities were calculated based on the standard curves of free pNA and AMC (Figure S10). The activation (AC50) or inhibition constants (IC50) were determined using the non-linear regression approach in the GraphPad Prism 9 program.

[3] = target: T1, LTA4H; test: Epoxide hydrolase inhibition assay with recombinant LTA4H (LTA4 to LTB4); format: biochemical; design: made in house; host or cells: Escherichia coli JM101; conditions: epoxide hydrolase activity, 10-40 μM LTA4, competitive inhibition model
Source text: Human recombinant LTA4H was expressed in Escherichia coli JM101 strain and purified as described previously. In short, supernatant of lysed cells was loaded on a nickel affinity column followed by the purification steps with the Mono Q 5/50 and Superdex HiLoad 16/600 columns (Cytiva, Uppsala, Sweden). Protein purity was checked by sodium dodecyl-sulfate polyacrylamide gel electrophoresis (SDS-PAGE)(XCell SureLock Mini-Cell Electrophoresis System and PowerEase 300W Power Supply) with a NuPAGE Bis-Tris 4–12% gels (Invitrogen, Waltham, MA, USA) after every purification step.
Purified LTA4H (3 μg) was pre-incubated with 0–50 μM inhibitors on ice for 3 min and the epoxide hydrolase reaction was carried out with 10 μM, 20 μM or 40 μM LTA4 for 15 s in 100 μL 25 mM Tris-HCl pH 7.8 at room temperature. The incubation was stopped by addition of 2 vol of methanol, containing 300 pmol PGB2 (ε ~ 26,000 M^−1 cm^−1; λmax = 280 nm) as an internal standard, and followed by 1 vol of distilled water. […] The formation of LTB4 (ε ~ 50,000 M^−1 cm^−1) was determined at 270 nm. The Ki value for each inhibitor was calculated using the competitive inhibition model in the GraphPad Prism 9 program.

[4] = A23187-activated intact PMNs, LTB4 formation, read-out: IC50 on the activity of LTA4H (LTB4) in PMNs
[5] = 5 µM L-Arg-AMC, read-out: IC50, peptidase activity with L-Arg-AMC
[6] = 5 µM L-Pro-AMC, read-out: IC50, peptidase activity with L-Pro-AMC
[7] = 1 mM L-Arg-pNa, read-out: IC50, peptidase activity with L-Arg-pNa
[8] = 1 mM L-Lys-pNa, read-out: IC50, peptidase activity with L-Lys-pNa
[9] = 1 mM L-Ala-pNa, read-out: AC50, peptidase activity with L-Ala-pNa
[10] = 1 mM L-Leu-pNa, read-out: AC50, peptidase activity with L-Leu-pNa
[11] = 1 mM L-Val-pNa, read-out: AC50, peptidase activity with L-Val-pNa

Structure (SMILES)	inhibition of LTA4H (LTB4 production) in PMNs with exogenous AA [1]	IC50 [1, 4]	IC50 [2, 5]	IC50 [2, 6]	IC50 [2, 7]	IC50 [2, 8]	AC50 [2, 9]	AC50 [2, 10]	AC50 [2, 11]	Specific activity of LTA4H with L-Ala-pNa in the presence of inhibitor [2]	Specific activity of LTA4H with L-Arg-AMC in the presence of inhibitor [2]	Specific activity of LTA4H with L-Arg-pNa in the presence of inhibitor [2]	Specific activity of LTA4H with L-Leu-pNa in the presence of inhibitor [2]	Specific activity of LTA4H with L-Pro-AMC in the presence of inhibitor [2]	Specific activity of LTA4H with L-Pro-pNa in the presence of inhibitor [2]	Specific activity of LTA4H with L-Val-pNa in the presence of inhibitor [2]	Ki [3]	fold change of specific activity with L-Arg-AMC ([2]; in parentheses)	fold change of specific activity with L-Arg-pNa ([2]; in parentheses)	fold change of specific activity with L-Pro-AMC ([2]; in parentheses)	other results
Nc1nc(-c2ccc(Cc3ccccc3)cc2)cs1 [ARM1, 4-(4-benzylphenyl) thiazol-2-amine, reference compound]	almost complete	600 nM	330 ± 90 nM	300 ± 70 nM	360 ± 60 nM	1060 ± 240 nM	180 ± 40 nM	480 ± 50 nM	230 ± 20 nM	79.6 ± 7.6 µmol/µg/min	10.1 ± 0.1 µmol/µg/min	0.20 ± 0.03 µmol/µg/min	46.3 ± 1.7 µmol/µg/min	16.0 ± 0.2 µmol/µg/min	2.65 ± 0.12 µmol/µg/min	24.9 ± 0.8 µmol/µg/min	1500 nM	–	–	–	–
Nc1nc(-c2ccc(Cc3ccccc3)cc2)co1 [TTO, 4-(4-benzylphenyl) oxazol-2-amine]	higher production of LTB4	800 nM	440 ± 140 nM	310 ± 50 nM	460 ± 50 nM	890 ± 710 nM	280 ± 40 nM	560 ± 60 nM	210 ± 20 nM	93.0 ± 1.7 µmol/µg/min	9.9 ± 0.1 µmol/µg/min	0.2 ± 0.1 µmol/µg/min	46.9 ± 1.7 µmol/µg/min	15.8 ± 0.2 µmol/µg/min	2.3 ± 0.2 µmol/µg/min	24.4 ± 0.4 µmol/µg/min	3800 nM	3 x	89 x	2 x	fold change of specific activity with L-Pro-pNa ([2]; in parentheses, vs LTA4H without inhibitor): 1.3 x; fold change of specific activity with L-Ala-pNa ([2]; in parentheses): 9 x; fold change of specific activity with L-Leu-pNa ([2]; in parentheses): 12 x; fold change of specific activity with L-Val-pNa ([2]; in parentheses): 30 x
Nc1nc(-c2ccc(Cc3ccccc3)cc2)c[se]1 [TTSe, 4-(4-benzylphenyl) selenazol-2-amine]	almost complete	–	–	–	–	–	–	–	–	88.0 ± 4.6 µmol/µg/min	10.1 ± 0.1 µmol/µg/min	0.20 ± 0.07 µmol/µg/min	37.6 ± 1.1 µmol/µg/min	15.7 ± 0.2 µmol/µg/min	2.8 ± 0.1 µmol/µg/min	24.6 ± 0.5 µmol/µg/min	4800 nM	3 x	94 x	2 x	IC50 [1]: 800 nM; AC50 ([2]; AC50, peptidase activity with L-Ala-pNa, 1 mM L-Ala-pNa): 210 ± 30 nM; AC50 ([2]; AC50, peptidase activity with L-Leu-pNa, 1 mM L-Leu-pNa): 520 ± 50 nM; AC50 ([2]; AC50, peptidase activity with L-Val-pNa, 1 mM L-Val-pNa): 270 ± 30 nM; IC50 ([2]; IC50, peptidase activity with L-Arg-AMC, 5 µM L-Arg-AMC): 380 ± 90 nM; IC50 ([2]; IC50, peptidase activity with L-Arg-pNa, 1 mM L-Arg-pNa): 490 ± 100 nM; IC50 ([2]; IC50, peptidase activity with L-Lys-pNa, 1 mM L-Lys-pNa): 1010 ± 360 nM; IC50 ([2]; IC50, peptidase activity with L-Pro-AMC, 5 µM L-Pro-AMC): 250 ± 20 nM; fold change of specific activity with L-Ala-pNa ([2]; in parentheses): 9 x; fold change of specific activity with L-Leu-pNa ([2]; in parentheses): 10 x; fold change of specific activity with L-Val-pNa ([2]; in parentheses): 30 x

From PMC10145651, “Modulation of the 5-Lipoxygenase Pathway by Chalcogen-Containing Inhibitors of Leukotriene A4 Hydrolase” (International Journal of Molecular Sciences, 2023)
